From PMC6268492, “Synthesis and Antiangiogenic Activity of Novel Gambogic Acid Derivatives” (Molecules, 2012)
Read-outs that look alike come from different tables or passages of the source.

Columns and labels:
[1] = tested on: transgenic fli-1: enhanced GFP zebrafish embryos; experiment: Zebrafish embryo assay: antiangiogenic effects; assay type: in vivo, zebrafish (Danio rerio); details: for antiangiogenic rates / inhibition in vivo at 1 µM: 1 μM; for antiangiogenic rates / inhibition in vivo at 10 µM / inhibition in vivo at 1 µM / inhibition in vivo at 2.5 µM: zebrafish embryos; for inhibition in vivo at 10 µM / inhibition in vivo at 1 µM / inhibition in vivo at 2.5 µM: Danio rerio; for antiangiogenic activities / inhibition in vivo at 2.5 µM: 2.5 μM; for antiangiogenic activities: not enhanced greatly at 10 μM
Protocol: As stated previously, zebrafish is regarded as a powerful tool in the study of human diseases. […] In this study, all GA derivatives were incubated with the transgenic friend leukemia integration-1 (fli-1): enhanced GFP zebrafish embryos which carried a fli-1 promoter which can drive the expression of GFP in the whole endothelium.
Figure 1 Effects on neovascularization in zebrafish embryos. The transgenic fli-1: enhanced GFP zebrafish embryos in embryo water (0.2 g/L of instant ocean salt in distilled water) incubated with 1 μM of compounds at 6 h postfertilization (hpf) for 24 h. Zebrafish embryos were imaged (Imager.Z1, magnification: left, 40×; right, 100×).
Using transgenic fli-1: enhanced GFP zebrafish embryos, we investigated the effects of all compounds on angiogenesis. […] At about 6 h post fertilization (hpf), the embryos were sorted in the 6-well plate (six embryos/well), removing dead and unhealthy embryos. Then the embryos were treated with the indicated concentrations of compounds which were added into embryo water. After incubation for 24 or 48 h, the embryos were anesthetized using 0.05% 2-phenoxyethanol in embryo water, quantified and photographed.

[2] = tested on: LO2; experiment: MTT assay, cytotoxicity; assay type: cell-based; details: Homo sapiens, L02, 24 h, read-out: IC50, inhibition of cell proliferation
Protocol: (§1) HepG2, HCT116, HeLa and LO2 cell lines were cultured in DMEM containing 10% fetal bovine serum (FBS), 100 IU/mL penicillin and 100 µg/mL streptomycin; A549 and K562 cell lines were cultured in RPMI 1640 medium containing 10% fetal bovine serum (FBS), 100 IU/mL penicillin and 100 µg/mL streptomycin; Human umbilical vein endothelial cells (HUVECs) were cultured on gelatin-coated culture flasks in M-199 medium with 20% fetal bovine serum (FBS), 2 ng/mL VEGF, 10 ng/mL basic FGF, 100 IU/mL penicillin, and 100 μg/mL streptomycin; all of them were obtained from the American Type Culture Collection (ATCC) and all cell lines were incubated in an atmosphere of 5% CO2 at 37 °C.
(§2) Cells were treated with various concentrations of compound in 96-well culture plates for 24 h in final volumes of 200 μL (5 × 10^3 cells/well). Then 20 μL of MTT solution (5 mg/mL) was added to each well, and cells were incubated for an additional 3 h. Then the medium was carefully removed, and precipitates were dissolved in 150 μL of DMSO, shaken mechanically for 30 min, and then absorbance values at a wavelength of 570 nm were taken on a spectrophotometer (Molecular Devices, Sunnyvale, CA, USA). Values were calculated using percentage of growth versus untreated control. The IC50 was defined as the concentration that caused 50% inhibition of cell proliferation, and was calculated by SAS statistical software.

[3] = tested on: HeLa; experiment: MTT assay, cell proliferation; assay type: cell-based; details: Homo sapiens, 24 h, read-out: IC50, inhibition of cell proliferation
Protocol: as §1, §2

[4] = tested on: A549; experiment: MTT assay, cell proliferation; assay type: cell-based; details: Homo sapiens, 24 h, read-out: IC50, inhibition of cell proliferation
Protocol: as §1, §2

[5] = tested on: K562; experiment: MTT assay, cell proliferation; assay type: cell-based; details: Homo sapiens, 24 h, read-out: IC50, inhibition of cell proliferation
Protocol: as §1, §2

[6] = tested on: HCT116; experiment: MTT assay, cell proliferation; assay type: cell-based; details: Homo sapiens, HCT-116, 24 h, read-out: IC50, inhibition of cell proliferation
Protocol: as §1, §2

[7] = tested on: HepG2; experiment: MTT assay, cell proliferation; assay type: cell-based; details: Homo sapiens, 24 h, read-out: IC50, inhibition of cell proliferation
Protocol: as §1, §2

[8] = tested on: HUVEC; experiment: MTT assay, cell proliferation; assay type: cell-based, Human; details: Homo sapiens, 24 h, read-out: IC50, inhibition of cell proliferation
Protocol: Inhibiting the proliferation of ECs is another important strategy for antiangiogenesis. […] As the exposure time of these derivatives was 24 h in the migration assay and 6 h in the tube formation assay, the effect of the incubation for 24 h in the presence of these compounds on HUVECs proliferation was then tested. Cell viability was assessed by the MTT method. We can see from Table 4 that these compounds had different antiproliferative activities.
as §1, §2

[9] = vs vehicle (0.05% DMSO), read-out: Anti-angiogenic phenotype

SMILES	antiangiogenic rates [1]	inhibition in vivo at 10 µM [1, 9] [%]	IC50 [2] [µM]	IC50 [3] [µM]	IC50 [4] [µM]	IC50 [5] [µM]	IC50 [6] [µM]	IC50 [7] [µM]	IC50 [8] [µM]	antiangiogenic activities [1]	inhibition in vivo at 1 µM ([1]; read-out: antiangiogenic rates) [%]	inhibition in vivo at 1 µM [1, 9] [%]	inhibition in vivo at 2.5 µM [1, 9] [%]
CC(C)=CCCC1(C)C=Cc2c(O)c3c(c(CC=C(C)C)c2O1)OC12C(=CC4CC1C(C)(C)OC2(C/C=C(/C)C(=O)Oc1ccc(C(=O)CBr)cc1)C4=O)C3=O (stereo not drawn) [Compound 16, 4-(2-Bromoacetyl)phenyl gambogate]	inactive	25 to 50	5.25 ± 0.51	8.98 ± 0.58	> 80	3.46 ± 0.34	5.08 ± 0.77	4.51 ± 0.29	11.9 ± 1.36				
CCCC(=O)Nc1ccc(OC(=O)/C(C)=C\CC23OC(C)(C)C4CC(C=C5C(=O)c6c(O)c7c(c(CC=C(C)C)c6OC542)OC(C)(CCC=C(C)C)C=C7)C3=O)cc1 (stereo not drawn) [Compound 26, 4-Butyramidophenyl gambogate]		25 to 50	4.22 ± 0.5	4.46 ± 0.57	4 ± 0.8	0.77 ± 0.03	1.73 ± 0.44	1.72 ± 0.12	2.98 ± 0.1	moderate	25 to 50	25 to 50	25 to 50
COc1ccc(OC(=O)/C(C)=C\CC23OC(C)(C)C4CC(C=C5C(=O)c6c(O)c7c(c(CC=C(C)C)c6OC542)OC(C)(CCC=C(C)C)C=C7)C3=O)cc1Br (stereo not drawn) [Compound 22, 2-Bromo-4-methoxyphenyl gambogate]	inactive	25 to 50	> 80	> 80	> 80	36.9 ± 0.56	36.9 ± 0.64	63.2 ± 3.88	51.3 ± 1.1				
CC(C)=CCCC1(C)C=Cc2c(O)c3c(c(CC=C(C)C)c2O1)OC12C(=CC4CC1C(C)(C)OC2(C/C=C(/C)C(=O)Oc1ccc(NC(=O)CCCl)cc1)C4=O)C3=O (stereo not drawn) [Compound 9, 3-Chloro-N-(4-phenylgambogate)propanamide]		25 to 50	1 ± 0.1	3.42 ± 0.19	3.75 ± 0.35	1.14 ± 0.03	2.05 ± 0.41	5.16 ± 0.55	4.27 ± 0.25	moderate	< 25	< 25	25 to 50
CC(C)=CCCC1(C)C=Cc2c(O)c3c(c(CC=C(C)C)c2O1)OC12C(=CC4CC1C(C)(C)OC2(C/C=C(/C)C(=O)Oc1ccc(Cl)cc1C=O)C4=O)C3=O (stereo not drawn) [Compound 23, 4-Chloro-2-formylphenyl gambogate]	inactive	25 to 50	31.7 ± 1.94	61.6 ± 5.86	73.5 ± 3.4	15.5 ± 1.35	15.9 ± 1.46	19.9 ± 2.89	32 ± 1.76				
CC(=O)Nc1ccccc1OC(=O)/C(C)=C\CC12OC(C)(C)C3CC(C=C4C(=O)c5c(O)c6c(c(CC=C(C)C)c5OC431)OC(C)(CCC=C(C)C)C=C6)C2=O (stereo not drawn) [Compound 27, 2-Acetamidophenyl gambogate]			1.52 ± 0.12	3.51 ± 0.15	1.22 ± 0.25	0.52 ± 0.02	1.05 ± 0.07	0.69 ± 0.08	0.5 ± 0.03				
CCc1ccc(OC(=O)/C(C)=C\CC23OC(C)(C)C4CC(C=C5C(=O)c6c(O)c7c(c(CC=C(C)C)c6OC542)OC(C)(CCC=C(C)C)C=C7)C3=O)cc1 (stereo not drawn) [Compound 21, 4-Ethylphenyl gambogate]			> 80	> 80	> 80	> 80	> 80	> 80	70.5 ± 4.86				
CC(C)=CCCC1(C)C=Cc2c(O)c3c(c(CC=C(C)C)c2O1)OC12C(=CC4CC1C(C)(C)OC2(C/C=C(/C)C(=O)Oc1ccc(Br)c(F)c1F)C4=O)C3=O (stereo not drawn) [Compound 24, 4-Bromo-2,3-difluorophenyl gambogate]			> 80	> 80	> 80	> 80	> 80	> 80	> 80				
CC(C)=CCCC1(C)C=Cc2c(O)c3c(c(CC=C(C)C)c2O1)OC12C(=CC4CC1C(C)(C)OC2(C/C=C(/C)C(=O)Oc1cccc(C)c1[N+](=O)[O-])C4=O)C3=O (stereo not drawn) [Compound 14, 3-Methyl-2-nitrophenyl gambogate]			70.8 ± 2.47	> 80	> 80	22.6 ± 0.53	34.8 ± 1.84	40.6 ± 2.75	42 ± 2.76				
CC(C)=CCCC1(C)C=Cc2c(O)c3c(c(CC=C(C)C)c2O1)OC12C(=CC4CC1C(C)(C)OC2(C/C=C(/C)C(=O)Sc1nccs1)C4=O)C3=O (stereo not drawn) [Compound 29, S-thiazol-2-yl gambogthioate]			4.28 ± 0.33	1.45 ± 0.07	0.63 ± 0.01	0.79 ± 0.06	1.63 ± 0.15	0.85 ± 0.15	6.64 ± 0.11				
CC(C)=CCCC1(C)C=Cc2c(O)c3c(c(CC=C(C)C)c2O1)OC12C(=CC4CC1C(C)(C)OC2(C/C=C(/C)C(=O)Oc1ccc(C=O)cc1)C4=O)C3=O (stereo not drawn) [Compound 20, 4-Formylphenyl gambogate]	inactive	25 to 50	9.92 ± 0.52	24.3 ± 2.13	31.2 ± 2.29	4.52 ± 0.43	7.9 ± 0.14	5.86 ± 0.4	7.7 ± 0.32				
CC(C)=CCCC1(C)C=Cc2c(O)c3c(c(CC=C(C)C)c2O1)OC12C(=CC4CC1C(C)(C)OC2(C/C=C(/C)C(=O)Nc1nc2ccccc2s1)C4=O)C3=O (stereo not drawn) [Compound 34, N-(benzo[d]thiazol-2-yl) gambogamide]			7.3 ± 1.2	> 80	21.4 ± 3.71	> 20	7.74 ± 1.43	8.65 ± 0.46	5.63 ± 0.2				
